Target: Trypanosoma evansi protein-tyrosine phosphatase (PTPase)
Conditions: competitive; substrate pNPP; 25 mM HEPES pH 7.3, 10% glycerol, no EDTA; 37 °C

Q: `[O]=[V]([OH])([OH])[OH]` [sodium orthovanadate] was tested. Which Ki did it give?
A: 200 µg/mL

Source: publication PMC6927228 (Journal of Experimental Pharmacology, 2019)
